Data as given in patent US8133849B2, “Herbicidal compounds” (Syngenta Limited, priority 2007, dated 2012).

Key:
Experiment in all cases: Example B2 herbicidal action, post-emergence, pots in glasshouse, damage score 0-10
Assay type in all cases: in vivo
Conditions in all cases: application post-emergence, rate 1000 g/ha, evaluated after 13 days
Ipomea hederaceae = system: Ipomea hederaceae
Method: (§1) Seeds of a variety of test species were sown in standard soil in pots. After 8 days cultivation (post-emergence) under controlled conditions in a glasshouse (at 24/16° C., day/night; 14 hours light; 65% humidity), the plants were sprayed with an aqueous spray solution derived from the formulation of the technical active ingredient in acetone/water (50:50) solution containing 0.5% Tween 20 (polyoxyethelyene sorbitan monolaurate, CAS RN 9005-64-5). The test plants were then grown in a glasshouse under controlled conditions in a glasshouse (at 24/16° C., day/night; 14 hours light; 65% humidity) and watered twice daily. After 13 days, the test was evaluated (10=total damage to plant; 0=no damage to plant).

Solanum nigrum = system: Solanum nigrum
Method: as §1

Setaria faberi = system: Setaria faberi
Method: as §1

Amaranthus retroflexus = system: Amaranthus retroflexus
Method: as §1

Echinochloa crus-galli = system: Echinochloa crus-galli
Method: as §1

| Structure (SMILES) | IPOHE damage score (10=total damage to plant; 0=no damage to plant) (Ipomea hederaceae) | SOLNI damage score (10=total damage to plant; 0=no damage to plant) (Solanum nigrum) | SETFA damage score (10=total damage to plant; 0=no damage to plant) (Setaria faberi) | AMARE damage score (10=total damage to plant; 0=no damage to plant) (Amaranthus retroflexus) | ECHCG damage score (10=total damage to plant; 0=no damage to plant) (Echinochloa crus-galli) |
| --- | --- | --- | --- | --- | --- |
| CC(C)(C)C(=O)OC1=C(c2c(F)ccc(Br)c2Cl)S(=O)(=O)N(CC(F)F)c2nccnc21 [Compound C35] | 10 | 10 | 7 | 10 | 7 |
| CC(C)C(=O)OC1=C(c2c(F)ccc(Cl)c2Cl)S(=O)(=O)N(CC(F)F)c2nccnc21 [Compound C36] | 10 | 9 | 3 | 9 | 7 |
| CCSC(=O)OC1=C(c2c(Cl)ccc(Cl)c2Cl)S(=O)(=O)N(CC(F)F)c2nccnc21 [Compound C37] | 9 | 9 | 6 | 8 | 8 |
| CC(C)C(=O)OC1=C(c2c(Cl)ccc(Cl)c2Cl)S(=O)(=O)N(CC(F)F)c2nccnc21 [Compound C38] | 10 | 10 | 9 | 9 | 9 |
| CC(C)C(=O)OC1=C(c2ccccc2Br)S(=O)(=O)N(CC(F)F)c2nccnc21 [Compound C39] | 9 | 10 | 4 | 9 | 4 |
| CC(C)(C)C(=O)OC1=C(c2c(F)ccc(-c3cccc(Cl)c3)c2Cl)S(=O)(=O)N(CC(F)F)c2nccnc21 [Compound C42, 2,2-dimethylpropionic acid-3-(2,3′-dichloro-4-fluoro-biphenyl-3-yl)-1-(2,2-difluoroethyl)-2,2-dioxo-1,2-dihydro-2-λ-6-thia-1,5,8-triaza-naphthalen-4-yl ester] | 4 | 3 | 2 | 2 | 2 |
| CCN1c2nccnc2C(OC(=O)C(C)(C)C)=C(c2c(F)cccc2C(F)(F)F)S1(=O)=O [Compound C43] | 5 | 6 | 3 | 5 | 5 |
| CC(C)(C)C(=O)OC1=C(c2cc(C(F)(F)F)ccc2C(F)(F)F)S(=O)(=O)N(CC(F)F)c2nccnc21 [Compound C44] | 10 | 10 | 6 | 10 | 9 |
| CCN1c2nccnc2C(OC(=O)C(C)(C)C)=C(c2cc(F)c(Cl)cc2Cl)S1(=O)=O [Compound C45] | 9 | 7 | 1 | 0 | 4 |
| CCN1c2nccnc2C(OC(=O)C(C)(C)C)=C(c2cc(C(F)(F)F)ccc2C(F)(F)F)S1(=O)=O [Compound C46] | 5 | 6 | 0 | 4 | 4 |
| CC(C)(C)C(=O)OC1=C(c2cc(F)c(Cl)cc2Cl)S(=O)(=O)N(CC(F)F)c2nccnc21 [Compound C47] | 7 | 10 | 7 | 10 | 4 |
| CCc1cc(C)cc(CC)c1C1=C(OC(=O)C(C)C)c2nccnc2N(CC(F)F)S1(=O)=O [Compound C48] | 6 | 5 | 0 | 3 | 0 |
| CC(C)C(=O)OC1=C(c2c(Br)cccc2Br)S(=O)(=O)N(CC(F)F)c2nccnc21 [Compound C49] | 9 | 9 | 6 | 9 | 8 |
| CCN1c2nccnc2C(OC(=O)C(C)C)=C(c2c(Cl)ccc(Cl)c2C(F)(F)F)S1(=O)=O [Compound C50] | 7 | 6 | 4 | 5 | 5 |
| CCN1c2nccnc2C(OC(=O)C(C)C)=C(c2cc(I)ccc2Cl)S1(=O)=O [Compound C51] | 6 | 7 | 0 | 5 | 1 |
| CC(C)(C)C(=O)OC1=C(c2c(Cl)ccc(Cl)c2C(F)(F)F)S(=O)(=O)N(CC(F)F)c2nccnc21 [Compound C52] | 10 | 8 | 8 | 9 | 7 |
| CC(C)C(=O)OC1=C(c2c(Cl)ccc(Cl)c2C(F)(F)F)S(=O)(=O)N(CC(F)F)c2nccnc21 [Compound C53] | 4 | 5 | 5 | 8 | 8 |
| CC(C)C(=O)OC1=C(c2cc(I)ccc2Cl)S(=O)(=O)N(CC(F)F)c2nccnc21 [Compound C54] | 8 | 8 | 2 | 6 | 3 |
| CC(C)(C)C(=O)OC1=C(c2cc(I)ccc2Cl)S(=O)(=O)N(CC(F)F)c2nccnc21 [Compound C55] | 8 | 7 | 2 | 7 | 2 |
